Data as given in ChEMBL document CHEMBL3885881, “DrugMatrix”.

Species on record: Rattus norvegicus
Experiment: DrugMatrix - Regimen: Daily Repeat
Type: toxicity, organism-based, Sprague-Dawley
Parameters: regimen Daily Repeat, gender Male, age 6-8 weeks
Conditions: in vivo, po, route oral GAVAGE, […]; for ABSOLUTE BASOPHIL / ABSOLUTE EOSINOPHIL / ABSOLUTE LYMPHOCYTE / ABSOLUTE MONOCYTE / ABSOLUTE SEGMENTED NEUTROPHIL / BASOPHIL / EOSINOPHIL / ERYTHROCYTE COUNT / HEMATOCRIT / HEMOGLOBIN / LEUKOCYTE COUNT / LYMPHOCYTE / MEAN CORPUSCULAR HEMOGLOBIN / MEAN CORPUSCULAR HEMOGLOBIN CONCENTRATION / MEAN CORPUSCULAR VOLUME / MONOCYTE / NEUTROPHIL / NUCLEATED RED BLOOD CELLS / PLATELET COUNT: tissue Blood; for ALANINE AMINOTRANSFERASE / ALBUMIN / ALKALINE PHOSPHATASE / ASPARTATE AMINOTRANSFERASE / BLOOD UREA NITROGEN / CARBON DIOXIDE / CHLORIDE / CHOLESTEROL / CREATINE PHOSPHOKINASE / CREATININE / GLUCOSE / LACTATE DEHYDROGENASE / LIPASE / PHOSPHORUS / POTASSIUM / SODIUM / TOTAL BILIRUBIN / TOTAL PROTEIN / URIC ACID: tissue Plasma
[1] = 30 mg/kg, 120 h, dose level Low, time 5 day
[2] = 1093 mg/kg, 72 h, dose level High, time 3 day
[3] = 1093 mg/kg, 120 h, dose level High, time 5 day

CCC(C)n1ncn(-c2ccc(N3CCN(c4ccc(OCC5COC(Cn6cncn6)(c6ccc(Cl)cc6Cl)O5)cc4)CC3)cc2)c1=O (centres undefined) [ITRACONAZOLE]
ABSOLUTE BASOPHIL [1]: 0 CELLS/uL
ABSOLUTE EOSINOPHIL [1]: 154 CELLS/uL
ABSOLUTE LYMPHOCYTE [1]: 10619.33 CELLS/uL
ABSOLUTE MONOCYTE [1]: 425.67 CELLS/uL
ABSOLUTE SEGMENTED NEUTROPHIL [1]: 634.33 CELLS/uL
BASOPHIL [1]: 0%
EOSINOPHIL [1]: 1.33%
ERYTHROCYTE COUNT [1]: 5.97 x10E6/uL
HEMATOCRIT [1]: 38.27%
HEMOGLOBIN [1]: 14.43 G/DL
LEUKOCYTE COUNT [1]: 11.83 x10E3/uL
LYMPHOCYTE [1]: 89.67%
MEAN CORPUSCULAR HEMOGLOBIN [1]: 24.2 pg
MEAN CORPUSCULAR HEMOGLOBIN CONCENTRATION [1]: 37.77 G/DL
MEAN CORPUSCULAR VOLUME [1]: 64.1 fL
MONOCYTE [1]: 3.67%
NEUTROPHIL [1]: 5.33%
NUCLEATED RED BLOOD CELLS [1]: 0 /100WBC
PLATELET COUNT [1]: 1278.33 x10E3/uL
ALANINE AMINOTRANSFERASE [1]: 59.67 u/L
ALBUMIN [1]: 4.03 G/DL
ALKALINE PHOSPHATASE [1]: 472.33 u/L
ASPARTATE AMINOTRANSFERASE [1]: 77 u/L
BLOOD UREA NITROGEN [1]: 9 mg/dL
CARBON DIOXIDE [1]: 23.67 mmol/L
CHLORIDE [1]: 102.67 MEQ/L
CHOLESTEROL [1]: 50.33 mg/dL
CREATINE PHOSPHOKINASE [1]: 199.67 u/L
CREATININE [1]: 0.12 mg/dL
GLUCOSE [1]: 162.67 mg/dL
LACTATE DEHYDROGENASE [1]: 92.67 u/L
LIPASE [1]: 6.33 u/L
PHOSPHORUS [1]: 11.77 mg/dL
POTASSIUM [1]: 6.35 MEQ/L
SODIUM [1]: 142.93 MEQ/L
TOTAL BILIRUBIN [1]: 0.13 mg/dL
TOTAL PROTEIN [1]: 5.97 G/DL
URIC ACID [1]: 1.6 mg/dL
ABSOLUTE BASOPHIL [2]: 0 CELLS/uL
ABSOLUTE EOSINOPHIL [2]: 143 CELLS/uL
ABSOLUTE LYMPHOCYTE [2]: 12564.33 CELLS/uL
ABSOLUTE MONOCYTE [2]: 467.67 CELLS/uL
ABSOLUTE SEGMENTED NEUTROPHIL [2]: 825 CELLS/uL
BASOPHIL [2]: 0%
EOSINOPHIL [2]: 1%
ERYTHROCYTE COUNT [2]: 6.06 x10E6/uL
HEMATOCRIT [2]: 38.43%
HEMOGLOBIN [2]: 14.67 G/DL
LEUKOCYTE COUNT [2]: 14 x10E3/uL
LYMPHOCYTE [2]: 89.67%
MEAN CORPUSCULAR HEMOGLOBIN [2]: 24.23 pg
MEAN CORPUSCULAR HEMOGLOBIN CONCENTRATION [2]: 38.17 G/DL
MEAN CORPUSCULAR VOLUME [2]: 63.43 fL
MONOCYTE [2]: 3.33%
NEUTROPHIL [2]: 6%
NUCLEATED RED BLOOD CELLS [2]: 0 /100WBC
PLATELET COUNT [2]: 1165.33 x10E3/uL
ALANINE AMINOTRANSFERASE [2]: 57 u/L
ALBUMIN [2]: 4 G/DL
ALKALINE PHOSPHATASE [2]: 535.67 u/L
ASPARTATE AMINOTRANSFERASE [2]: 71 u/L
BLOOD UREA NITROGEN [2]: 10.67 mg/dL
CARBON DIOXIDE [2]: 22.67 mmol/L
CHLORIDE [2]: 102.33 MEQ/L
CHOLESTEROL [2]: 50.33 mg/dL
CREATINE PHOSPHOKINASE [2]: 230.33 u/L
CREATININE [2]: 0.12 mg/dL
GLUCOSE [2]: 165 mg/dL
LACTATE DEHYDROGENASE [2]: 54.33 u/L
LIPASE [2]: 9.33 u/L
PHOSPHORUS [2]: 10.63 mg/dL
POTASSIUM [2]: 6.01 MEQ/L
SODIUM [2]: 142.3 MEQ/L
TOTAL BILIRUBIN [2]: 0.17 mg/dL
TOTAL PROTEIN [2]: 5.87 G/DL
URIC ACID [2]: 1.77 mg/dL
ABSOLUTE BASOPHIL [3]: 0 CELLS/uL
ABSOLUTE EOSINOPHIL [3]: 139 CELLS/uL
ABSOLUTE LYMPHOCYTE [3]: 10102.67 CELLS/uL
ABSOLUTE MONOCYTE [3]: 609.67 CELLS/uL
ABSOLUTE SEGMENTED NEUTROPHIL [3]: 1115.33 CELLS/uL
BASOPHIL [3]: 0%
EOSINOPHIL [3]: 1%
ERYTHROCYTE COUNT [3]: 5.79 x10E6/uL
HEMATOCRIT [3]: 36.73%
HEMOGLOBIN [3]: 14.13 G/DL
LEUKOCYTE COUNT [3]: 11.97 x10E3/uL
LYMPHOCYTE [3]: 84.67%
MEAN CORPUSCULAR HEMOGLOBIN [3]: 24.4 pg
MEAN CORPUSCULAR HEMOGLOBIN CONCENTRATION [3]: 38.47 G/DL
MEAN CORPUSCULAR VOLUME [3]: 63.43 fL
MONOCYTE [3]: 5%
NEUTROPHIL [3]: 9.33%
NUCLEATED RED BLOOD CELLS [3]: 0 /100WBC
PLATELET COUNT [3]: 1189.33 x10E3/uL
ALANINE AMINOTRANSFERASE [3]: 78.67 u/L
ALBUMIN [3]: 4.17 G/DL
ALKALINE PHOSPHATASE [3]: 402 u/L
ASPARTATE AMINOTRANSFERASE [3]: 84.33 u/L
BLOOD UREA NITROGEN [3]: 10.67 mg/dL
CARBON DIOXIDE [3]: 22.33 mmol/L
CHLORIDE [3]: 103.67 MEQ/L
CHOLESTEROL [3]: 67 mg/dL
CREATINE PHOSPHOKINASE [3]: 522 u/L
CREATININE [3]: 0.21 mg/dL
GLUCOSE [3]: 181 mg/dL
LACTATE DEHYDROGENASE [3]: 126 u/L
LIPASE [3]: 17.33 u/L
PHOSPHORUS [3]: 11.7 mg/dL
POTASSIUM [3]: 5.88 MEQ/L
SODIUM [3]: 143.47 MEQ/L
TOTAL BILIRUBIN [3]: 0.13 mg/dL
TOTAL PROTEIN [3]: 5.83 G/DL
URIC ACID [3]: 2 mg/dL
